# Tested on: HCV replicon cells
# Experiment: Cell-based HCV replicon assay (replicon RNA level by real time PCR, Taqman)
# Conditions: Hepatitis C virus, 72 h, harvested on day 3, EC90 = concentration necessary to achieve ΔCT=3.2 over the baseline, read-out: EC90 Range
# Protocol: Assays Cell-Based HCV Replicon Assay
# To measure cell-based anti-HCV activity of the compounds of the present invention, replicon cells were seeded at 5000 cells/well in 96-well collagen I-coated Nunc plates in the presence of the compound of the invention. […] The final concentration of DMSO was 0.5%, fetal bovine serum was 10%, in the assay media. Cells were harvested on day 3 by the addition of 1× cell lysis buffer (Ambion cat #8721). The replicon RNA level was measured using real time PCR (Taqman assay). The amplicon was located in 5B. […] GAPDH RNA was used as endogenous control and was amplified in the same reaction as NS5B (multiplex PCR) using primers and VIC-labeled probe recommended by the manufacturer (PE Applied Biosystem). The real-time RT-PCR reactions were run on ABI PRISM 7900HT Sequence Detection System using the following program: 48° C. for 30 min, 95° C. for 10 min, 40 cycles of 95° C. for 15 sec, 60° C. for 1 min. The ACT values (CT5B-CTGAPDH) were plotted against the concentration of test compound and fitted to the sigmoid dose-response model using GraphPad PRISM software. EC50 was defined as the concentration of inhibitor necessary to achieve ΔCT=1 over the projected baseline; EC90 the concentration necessary to achieve ΔCT=3.2 over the baseline. Alternatively, to quantitate the absolute amount of replicon RNA, a standard curve was established by including serially diluted T7 transcripts of replicon RNA in the Taqman assay. All Taqman reagents were from PE Applied Biosystems. Such an assay procedure was described in detail in e.g. Malcolm et al., Antimicrobial Agents and Chemotherapy 50: 1013-1020 (2006).
row,SMILES,EC90 [nM]
1,CCOc1ccc(C#Cc2c(Cl)nc(N)nc2N[C@@H]2C[C@H](CO)[C@@H](O)[C@H]2O)cn1 [Compound 21],≤ 500
2,CCOc1ccc(C#Cc2c(C)nc(NCC(C)(C)C)nc2N[C@@H]2C[C@H](CO)[C@@H](O)[C@H]2O)cn1 [Compound 85],≤ 500
3,Cc1nc(NCCCO)nc(N[C@@H]2C[C@H](CO)[C@H]3OC(C)(C)O[C@H]32)c1C#Cc1cccs1 [Compound 100],500 to 5000
4,Cc1nc(OCC(F)(F)F)ccc1C#Cc1c(Cl)nc(NCC(F)(F)F)nc1N[C@@H]1C[C@H](CO)[C@@H](O)[C@H]1O [Compound 70],500 to 5000
5,COCCNc1nc(C)c(C#Cc2ccc(OC)nc2C)c(N[C@@H]2C[C@H](CO)[C@@H](O)[C@H]2O)n1 [Compound 82],≤ 500
6,CCNC(=O)c1ncccc1C#Cc1c(Cl)nc(N)nc1N[C@@H]1C[C@H](CO)[C@@H](O)[C@H]1O [Compound 56],500 to 5000
7,CSCCNc1nc(C)c(C#Cc2ccc(-c3ccccn3)s2)c(N[C@@H]2C[C@H](CO)[C@@H](O)[C@H]2O)n1 [Compound 96],≤ 500
8,CCOc1ccc(C#Cc2c(C)nc(NCCOC)nc2N[C@@H]2C[C@H](CO)[C@@H](O)[C@H]2O)cn1 [Compound 81],≤ 500
9,Cc1ccc(C#Cc2c(Cl)nc(N)nc2N[C@@H]2C[C@H](CO)[C@@H](O)[C@H]2O)cn1 [Compound 5],500 to 5000
10,Nc1nc(Cl)c(C#Cc2ncc(CO)s2)c(N[C@@H]2C[C@H](CO)[C@@H](O)[C@H]2O)n1 [Compound 47],> 5000
11,CCOc1ccc(C#Cc2c(C)nc(NCCF)nc2N[C@@H]2C[C@H](CO)[C@@H](O)[C@H]2O)cn1 [Compound 89],500 to 5000
12,CNc1nc(Cl)c(C#Cc2ccc(OC)nc2C)c(N[C@@H]2C[C@H](CO)[C@@H](O)[C@H]2O)n1 [Compound 65],≤ 500
13,COc1ccc(C#Cc2c(C)nc(NCc3c(OC)cccc3OC)nc2N[C@@H]2C[C@H](CO)[C@@H](O)[C@H]2O)cn1 [Compound 93],≤ 500
14,Nc1nc(Cl)c(C#Cc2ccc(Cl)cc2)c(N[C@@H]2C[C@H](CO)[C@@H](O)[C@H]2O)n1 [Compound 27],500 to 5000
15,COC[C@H]1C[C@@H](Nc2nc(N)nc(Cl)c2C#Cc2ccsc2)[C@H](O)[C@@H]1O [Compound 61],500 to 5000
16,Nc1nc(Cl)c(C#Cc2cncs2)c(N[C@@H]2C[C@H](CO)[C@@H](O)[C@H]2O)n1 [Compound 37],500 to 5000
17,Nc1nc(Cl)c(C#Cc2ccccc2Cl)c(N[C@@H]2C[C@H](CO)[C@@H](O)[C@H]2O)n1 [Compound 60],500 to 5000
18,Cc1csc(C#Cc2c(Cl)nc(N)nc2N[C@@H]2C[C@H](CO)[C@@H](O)[C@H]2O)n1 [Compound 46],> 5000
19,Cc1nc(N)nc(N[C@@H]2C[C@H](CO)[C@@H](O)[C@H]2O)c1C#Cc1nccs1 [Compound 80],500 to 5000
20,COC(=O)c1nc(N)sc1C#Cc1c(Cl)nc(N)nc1N[C@@H]1C[C@H](CO)[C@@H](O)[C@H]1O [Compound 32],≤ 500

row,SMILES,EC90 [nM]
1,CCOc1ccc(C#Cc2c(Cl)nc(N)nc2N[C@@H]2C[C@H](CO)[C@@H](O)[C@H]2O)c(C)n1 [Compound 2],≤ 500
2,Cc1nc(-c2nccs2)ccc1C#Cc1c(Cl)nc(N)nc1N[C@@H]1C[C@H](CO)[C@@H](O)[C@H]1O [Compound 63],≤ 500
3,"COc1ccc(C#Cc2c(Cl)nc(N)nc2N[C@@H]2C[C@H](CO)[C@@H](O)[C@H]2O)cn1 [Compound 20, (1R,2S,3R,5R)-3-[[2-Amino-6-chloro-5-[2-(2-methoxypyridin-5-yl)ethynyl]-4-pyrimidinyl]amino]-5-(hydroxymethyl)-1,2-cyclopentanediol]",≤ 500
4,COc1ccc(C#Cc2c(Cl)nc(NCC(F)(F)F)nc2N[C@@H]2C[C@H](CO)[C@@H](O)[C@H]2O)cn1 [Compound 76],≤ 500
5,CC(C)Oc1ncccc1C#Cc1c(Cl)nc(N)nc1N[C@@H]1C[C@H](CO)[C@@H](O)[C@H]1O [Compound 14],500 to 5000
6,CCc1nc(C)ccc1C#Cc1c(Cl)nc(N)nc1N[C@@H]1C[C@H](CO)[C@@H](O)[C@H]1O [Compound 17],500 to 5000
7,CCOc1ccc(C#Cc2c(Cl)nc(N(C)C)nc2N[C@@H]2C[C@H](CO)[C@@H](O)[C@H]2O)cn1 [Compound 23],> 5000
8,COc1ccc(C#Cc2c(C)nc(NCC3CC3)nc2N[C@@H]2C[C@H](CO)[C@@H](O)[C@H]2O)c(OC)n1 [Compound 95],≤ 500
9,Cc1nc(-c2ccccc2)c(C#Cc2c(Cl)nc(N)nc2N[C@@H]2C[C@H](CO)[C@@H](O)[C@H]2O)s1 [Compound 35],≤ 500
10,COc1ccc(C#Cc2c(C)nc(NCCSC)nc2N[C@@H]2C[C@H](CO)[C@@H](O)[C@H]2O)cn1 [Compound 84],≤ 500
11,CSc1ccc(C#Cc2c(Cl)nc(N)nc2N[C@@H]2C[C@H](CO)[C@@H](O)[C@H]2O)c(C)n1 [Compound 64],≤ 500
12,Nc1nc(Cl)c(C#Cc2ccc(-c3ccno3)s2)c(N[C@@H]2C[C@H](CO)[C@@H](O)[C@H]2O)n1 [Compound 43],500 to 5000
13,CCOc1ccc(C#Cc2c(C)nc(NCC(F)(F)F)nc2N[C@@H]2C[C@H](CO)[C@@H](O)[C@H]2O)cn1 [Compound 86],≤ 500
14,CCNc1nc(C)c(C#Cc2ccc(OC)nc2)c(N[C@@H]2C[C@H](CO)[C@@H](O)[C@H]2O)n1 [Compound 91],≤ 500
15,CCCc1ccc(C#Cc2c(Cl)nc(N)nc2N[C@@H]2C[C@H](CO)[C@@H](O)[C@H]2O)cn1 [Compound 79],≤ 500
16,COc1ncccc1C#Cc1c(Cl)nc(N)nc1N[C@@H]1C[C@H](CO)[C@@H](O)[C@H]1O [Compound 12],500 to 5000
17,Cc1ccsc1C#Cc1c(Cl)nc(N)nc1N[C@@H]1C[C@H](CO)[C@@H](O)[C@H]1O [Compound 7],500 to 5000
18,CCOc1ccc(C#Cc2c(Cl)nc(NCCOC)nc2N[C@@H]2C[C@H](CO)[C@@H](O)[C@H]2O)c(C)n1 [Compound 71],≤ 500
19,COc1ccc(C#Cc2c(Cl)nc(N)nc2N[C@@H]2C[C@H](CO)[C@@H](O)[C@H]2O)c(C)c1 [Compound 29],500 to 5000
20,CCNc1nc(C)c(C#Cc2ccc(OCC)nc2)c(N[C@@H]2C[C@H](CO)[C@@H](O)[C@H]2O)n1 [Compound 88],≤ 500

row,SMILES,EC90 [nM]
1,CCCNc1nc(C)c(C#Cc2ccc(OCC)nc2)c(N[C@@H]2C[C@H](CO)[C@@H](O)[C@H]2O)n1 [Compound 87],≤ 500
2,COCCNc1nc(Cl)c(C#Cc2ccc(OC)nc2C)c(N[C@@H]2C[C@H](CO)[C@@H](O)[C@H]2O)n1 [Compound 67],≤ 500
3,Nc1nc(Cl)c(C#Cc2cncnc2)c(N[C@@H]2C[C@H](CO)[C@@H](O)[C@H]2O)n1 [Compound 45],500 to 5000
4,Cc1nc(-c2cccs2)ccc1C#Cc1c(Cl)nc(N)nc1N[C@@H]1C[C@H](CO)[C@@H](O)[C@H]1O [Compound 18],≤ 500
5,CCOc1ccc(C#Cc2c(Cl)nc(NCC(F)(F)F)nc2N[C@@H]2C[C@H](CO)[C@@H](O)[C@H]2O)cn1 [Compound 74],≤ 500
6,COc1ccc(C#Cc2c(Cl)nc(N(C)C)nc2N[C@@H]2C[C@H](CO)[C@@H](O)[C@H]2O)cn1 [Compound 24],> 5000
7,OC[C@H]1C[C@@H](Nc2nc(NCC(F)(F)F)nc(Cl)c2C#Cc2ccc(-c3ccccn3)s2)[C@H](O)[C@@H]1O [Compound 97],≤ 500
8,Cc1nc(-c2ccccc2)c(C#Cc2c(Cl)nc(NCC(F)(F)F)nc2N[C@@H]2C[C@H](CO)[C@@H](O)[C@H]2O)s1 [Compound 101],500 to 5000
9,COCCNc1nc(Cl)c(C#Cc2ccc(OCC(F)(F)F)nc2C)c(N[C@@H]2C[C@H](CO)[C@@H](O)[C@H]2O)n1 [Compound 69],500 to 5000
10,COc1ccc(C#Cc2c(C)nc(NCCCO)nc2N[C@@H]2C[C@H](CO)[C@H]3OC(C)(C)O[C@H]32)cn1 [Compound 83],500 to 5000
11,CNC(=O)c1ncccc1C#Cc1c(Cl)nc(N)nc1N[C@@H]1C[C@H](CO)[C@@H](O)[C@H]1O [Compound 57],500 to 5000
12,Cc1nc(NCC2CC2)nc(N[C@@H]2C[C@H](CO)[C@@H](O)[C@H]2O)c1C#Cc1ccc(-c2ccccn2)s1 [Compound 104],500 to 5000
13,CCOc1ccc(C#Cc2c(Cl)nc(NCC(F)(F)F)nc2N[C@@H]2C[C@H](CO)[C@@H](O)[C@H]2O)c(C)n1 [Compound 72],≤ 500
14,Nc1nc(Cl)c(C#Cc2ccc(C3CCCCN3)s2)c(N[C@@H]2C[C@H](CO)[C@@H](O)[C@H]2O)n1 (some centres unmarked) [Compound 31],≤ 500
15,COc1ccc(C#Cc2c(Cl)nc(N)nc2N[C@@H]2C[C@H](CO)[C@@H](O)[C@H]2O)c(OC)n1 [Compound 22],≤ 500
16,COc1ccc(C#Cc2c(Cl)nc(N)nc2N[C@@H]2C[C@H](CO)[C@@H](O)[C@H]2O)c(C)n1 [Compound 3],≤ 500
17,Nc1nc(Cl)c(C#Cc2ccc(-c3ccccc3)cc2)c(N[C@@H]2C[C@H](CO)[C@@H](O)[C@H]2O)n1 [Compound 44],500 to 5000
18,COCCNc1nc(C)c(C#Cc2ccc(OC)nc2)c(N[C@@H]2C[C@H](CO)[C@@H](O)[C@H]2O)n1 [Compound 77],≤ 500
19,Nc1nc(Cl)c(C#Cc2cccnc2Cl)c(N[C@@H]2C[C@H](CO)[C@@H](O)[C@H]2O)n1 [Compound 10],500 to 5000

# — patent publication US8541434B2, “Ethynyl-substituted pyridine and pyrimidine derivatives and their use in treating viral infections” (Merck Sharp & Dohme Corp., priority 2008, dated 2013)
